Patent publication US11472811B2, “Pyrazolotriazolopyrimidine derivatives as A2A receptor antagonist” (BEIGENE, LTD., priority 2018, dated 2022)

Target: human A2A receptor (A2AR) (Homo sapiens (Human), UniProt P29274)
Assay: Luciferase reporter assay (HEK293-A2AR-luc2p/CRE/Hygro cells)
Assay type: cell-based
Details: 3 nM CGS21680, 5 h incubation
In short: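 Antagonism was scored as inhibition of CRE-luciferase signal driven by 3 nM CGS21680 (=100%) during a 5 h treatment with compound at 0.1–10000 nM. The line was HEK293 stably carrying human A2AR and luc2P/CRE, preincubated 18 h in 1% FBS containing 1 U/mL ADA. IC50 came from the dose-response curve.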

human A2A receptor (A2AR), sequence (P29274 whole entry): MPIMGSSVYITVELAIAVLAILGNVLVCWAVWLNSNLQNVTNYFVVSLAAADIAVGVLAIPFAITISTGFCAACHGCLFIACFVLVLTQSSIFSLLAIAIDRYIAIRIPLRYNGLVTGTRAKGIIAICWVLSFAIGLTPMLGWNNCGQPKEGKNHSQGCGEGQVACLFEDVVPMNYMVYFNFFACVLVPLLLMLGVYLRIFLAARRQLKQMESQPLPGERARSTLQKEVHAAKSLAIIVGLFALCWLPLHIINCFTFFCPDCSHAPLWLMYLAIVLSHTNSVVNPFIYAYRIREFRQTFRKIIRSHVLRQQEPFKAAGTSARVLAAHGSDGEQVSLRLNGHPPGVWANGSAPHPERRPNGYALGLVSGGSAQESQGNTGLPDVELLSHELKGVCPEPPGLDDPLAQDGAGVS

Row | Compound | IC50 [nM]
1 | COCCOCCNC(=O)C(C)(c1ccccc1)n1ncc2c1nc(N)n1nc(-c3ccco3)nc21 (centres unmarked) [Example 75, 2-(5-amino-2-(furan-2-yl)-7H-pyrazolo[4,3-e][1,2,4]triazolo[1,5-c]pyrimidin-7-yl)-N-(2-(2-methoxyethoxy)ethyl)-2-phenylpropanamide] | 16.9
2 | Nc1nc2c(cnn2C(C(=O)N[C@H]2CCCC[C@H]2O)c2ccccc2)c2nc(-c3ccco3)nn12 (stereo partly drawn) [Example 91, 2-(5-amino-2-(furan-2-yl)-7H-pyrazolo[4,3-e][1,2,4]triazolo[1,5-c]pyrimidin-7-yl)-N-((1S,2R)-2-hydroxycyclohexyl)-2-phenylacetamide] | 15.1
3 | CC(C(=O)NC[C@@H]1CCOC1)(c1ccccc1)n1ncc2c1nc(N)n1nc(-c3ccco3)nc21 (stereo partly drawn) [Example 53, 2-(5-amino-2-(furan-2-yl)-7H-pyrazolo[4,3-e][1,2,4]triazolo[1,5-c]pyrimidin-7-yl)-2-phenyl-N—(((S)-tetrahydrofuran-3-yl)methyl)propanamide] | 12.5
4 | CC(C(=O)NCCO)(c1ccccc1)n1ncc2c1nc(N)n1nc(-c3ccco3)nc21 (centres unmarked) [Example 55, 2-(5-amino-2-(furan-2-yl)-7H-pyrazolo[4,3-e][1,2,4]triazolo[1,5-c]pyrimidin-7-yl)-N-(2-hydroxyethyl)-2-phenylpropanamide] | 13.8
5 | Nc1nc2c(cnn2C(C(=O)NC2CCCc3ccccc32)c2ccccc2)c2nc(-c3ccco3)nn12 (centres unmarked) [Example 13, 2-(5-amino-2-(furan-2-yl)-7H-pyrazolo[4,3-e][1,2,4]triazolo[1,5-c]pyrimidin-7-yl)-2-phenyl-N-(1,2,3,4-tetrahydronaphthalen-1-yl)acetamide] | 8.3
6 | Nc1nc2c(cnn2C(C(=O)N[C@H]2CCOc3ccccc32)c2ccccc2)c2nc(-c3ccco3)nn12 (stereo partly drawn) [Example 16, 2-(5-amino-2-(furan-2-yl)-7H-pyrazolo[4,3-e][1,2,4]triazolo[1,5-c]pyrimidin-7-yl)-N—((S)-chroman-4-yl)-2-phenylacetamide] | 44.6
7 | Cc1cccc(CNC(=O)C(c2ccccc2)n2ncc3c2nc(N)n2nc(-c4ccco4)nc32)c1 (centres unmarked) [Example 23, 2-(5-amino-2-(furan-2-yl)-7H-pyrazolo[4,3-e][1,2,4]triazolo[1,5-c]pyrimidin-7-yl)-N-(3-methylbenzyl)-2-phenylacetamide] | 1.9
8 | COc1ccc(C(C)(C(=O)NCC2(O)COC2)n2ncc3c2nc(N)n2nc(-c4ccco4)nc32)cc1 (centres unmarked) [Example 86, 2-(5-amino-2-(furan-2-yl)-7H-pyrazolo[4,3-e][1,2,4]triazolo[1,5-c]pyrimidin-7-yl)-N-((3-hydroxyoxetan-3-yl)methyl)-2-(4-methoxyphenyl)propanamide] | 85.9
9 | Cc1ccc(CNC(=O)C(c2ccccc2)n2ncc3c2nc(N)n2nc(-c4ccco4)nc32)cc1 (centres unmarked) [Example 25, 2-(5-amino-2-(furan-2-yl)-7H-pyrazolo[4,3-e][1,2,4]triazolo[1,5-c]pyrimidin-7-yl)-N-(4-methylbenzyl)-2-phenylacetamide] | 1.5
10 | CC(C(=O)NCC1CCCOC1)(c1ccccc1)n1ncc2c1nc(N)n1nc(-c3ccco3)nc21 (centres unmarked) [Example 61, 2-(5-amino-2-(furan-2-yl)-7H-pyrazolo[4,3-e][1,2,4]triazolo[1,5-c]pyrimidin-7-yl)-2-phenyl-N-((tetrahydro-2H-pyran-3-yl)methyl)propanamide] | 12.4
11 | CC(C(=O)NC[C@H]1CCOC1)(c1ccccc1)n1ncc2c1nc(N)n1nc(-c3ccco3)nc21 (stereo partly drawn) [Example 54, 2-(5-amino-2-(furan-2-yl)-7H-pyrazolo[4,3-e][1,2,4]triazolo[1,5-c]pyrimidin-7-yl)-2-phenyl-N—(((R)-tetrahydrofuran-3-yl)methyl)propanamide] | 8.1
12 | CC(C(=O)N[C@H]1CCCC[C@@H]1O)(c1ccccc1)n1ncc2c1nc(N)n1nc(-c3ccco3)nc21 (stereo partly drawn) [Example 57, 2-(5-amino-2-(furan-2-yl)-7H-pyrazolo[4,3-e][1,2,4]triazolo[1,5-c]pyrimidin-7-yl)-N-((1S,2S)-2-hydroxycyclohexyl)-2-phenylpropanamide] | 29
13 | Cc1nccnc1-c1nc2c3cnn(C(C)(C(=O)NCC4(O)COC4)c4ccccc4)c3nc(N)n2n1 (centres unmarked) [Example 78, 2-(5-amino-2-(3-methylpyrazin-2-yl)-7H-pyrazolo[4,3-e][1,2,4]triazolo[1,5-c]pyrimidin-7-yl)-N-((3-hydroxyoxetan-3-yl)methyl)-2-phenylpropanamide] | 83.3
14 | CC(C(=O)NCC1(O)CCOCC1)(c1ccccc1)n1ncc2c1nc(N)n1nc(-c3ccco3)nc21 (centres unmarked) [Example 80, 2-(5-amino-2-(furan-2-yl)-7H-pyrazolo[4,3-e][1,2,4]triazolo[1,5-c]pyrimidin-7-yl)-N-((4-hydroxytetrahydro-2H-pyran-4-yl)methyl)-2-phenylpropanamide] | 9.4
15 | Nc1nc2c(cnn2C(C(=O)NC2CCCCC2)c2ccccc2)c2nc(-c3ccco3)nn12 (centres unmarked) [Example 2, 2-(5-amino-2-(furan-2-yl)-7H-pyrazolo[4,3-e][1,2,4]triazolo[1,5-c]pyrimidin-7-yl)-N-cyclohexyl-2-phenylacetamide] | 11.9
16 | CC(C(=O)NCCN1CCNCC1)(c1ccccc1)n1ncc2c1nc(N)n1nc(-c3ccco3)nc21 (centres unmarked) [Example 45, 2-(5-amino-2-(furan-2-yl)-7H-pyrazolo[4,3-e][1,2,4]triazolo[1,5-c]pyrimidin-7-yl)-2-phenyl-N-(2-(piperazin-1-yl)ethyl)propanamide] | 22.4
17 | CNC(=O)C(C)(c1ccccc1)n1ncc2c1nc(N)n1nc(-c3ccco3)nc21 (centres unmarked) [Example 32, 2-(5-amino-2-(furan-2-yl)-7H-pyrazolo[4,3-e][1,2,4]triazolo[1,5-c]pyrimidin-7-yl)-N-methyl-2-phenylpropanamide] | 25
18 | Nc1nc2c(cnn2C(C(=O)NC2CCOCC2)c2ccccc2)c2nc(-c3ccco3)nn12 (centres unmarked) [Example 11, 2-(5-amino-2-(furan-2-yl)-7H-pyrazolo[4,3-e][1,2,4]triazolo[1,5-c]pyrimidin-7-yl)-2-phenyl-N-(tetrahydro-2H-pyran-4-yl)acetamide] | 36

The next lines start with the values.

Row | IC50 [nM] | Compound
19 | 1.2 | COc1cccc(CNC(=O)[C@@](C)(c2ccccc2)n2ncc3c2nc(N)n2nc(-c4ccco4)nc32)n1 [Example 112B, (R)-2-(5-amino-2-(furan-2-yl)-7H-pyrazolo[4,3-e][1,2,4]triazolo[1,5-c]pyrimidin-7-yl)-N-((6-methoxypyridin-2-yl)methyl)-2-phenylpropanamide]
20 | 18.2 | CC(C(=O)N[C@H]1C[C@@H](O)C1)(c1ccccc1)n1ncc2c1nc(N)n1nc(-c3ccco3)nc21 (some centres unmarked) [Example 104, 2-(5-amino-2-(furan-2-yl)-7H-pyrazolo[4,3-e][1,2,4]triazolo[1,5-c]pyrimidin-7-yl)-N-((1s,3s)-3-hydroxycyclobutyl)-2-phenylpropanamide]
21 | 32.2 | C[C@](C(=O)N[C@H]1COC[C@H]1O)(c1ccccc1)n1ncc2c1nc(N)n1nc(-c3ccco3)nc21 [Example 107B, (R)-2-(5-amino-2-(furan-2-yl)-7H-pyrazolo[4,3-e][1,2,4]triazolo[1,5-c]pyrimidin-7-yl)-N-((3S,4S)-4-hydroxytetrahydrofuran-3-yl)-2-phenylpropanamide]
22 | 3.4 | CC(C(=O)NCc1ccc(F)cn1)(c1ccccc1)n1ncc2c1nc(N)n1nc(-c3ccco3)nc21 (centres unmarked) [Example 117, 2-(5-amino-2-(furan-2-yl)-7H-pyrazolo[4,3-e][1,2,4]triazolo[1,5-c]pyrimidin-7-yl)-N-((5-fluoropyridin-2-yl)methyl)-2-phenylpropanamide]
23 | 0.7 | Cc1ccc(CNC(=O)[C@@](C)(c2ccccc2)n2ncc3c2nc(N)n2nc(-c4ccco4)nc32)nc1 [Example 109B, (R)-2-(5-amino-2-(furan-2-yl)-7H-pyrazolo[4,3-e][1,2,4]triazolo[1,5-c]pyrimidin-7-yl)-N-((5-methylpyridin-2-yl)methyl)-2-phenylpropanamide]
24 | 2.2 | CC(C(=O)NCc1cccc(F)n1)(c1ccccc1)n1ncc2c1nc(N)n1nc(-c3ccco3)nc21 (centres unmarked) [Example 116, 2-(5-amino-2-(furan-2-yl)-7H-pyrazolo[4,3-e][1,2,4]triazolo[1,5-c]pyrimidin-7-yl)-N-((6-fluoropyridin-2-yl)methyl)-2-phenylpropanamide]
25 | 0.5 | Cc1cccnc1CNC(=O)[C@@](C)(c1ccccc1)n1ncc2c1nc(N)n1nc(-c3ccco3)nc21 [Example 111B, (R)-2-(5-amino-2-(furan-2-yl)-7H-pyrazolo[4,3-e][1,2,4]triazolo[1,5-c]pyrimidin-7-yl)-N-((3-methylpyridin-2-yl)methyl)-2-phenylpropanamide]
26 | 50.9 | CC(C(=O)N[C@H]1COC[C@@H]1O)(c1ccccc1)n1ncc2c1nc(N)n1nc(-c3ccco3)nc21 (stereo partly drawn) [Example 106, 2-(5-amino-2-(furan-2-yl)-7H-pyrazolo[4,3-e][1,2,4]triazolo[1,5-c]pyrimidin-7-yl)-N-((3S,4R)-4-hydroxytetrahydrofuran-3-yl)-2-phenylpropanamide]
27 | 2.9 | Cc1ccnc(CNC(=O)[C@@](C)(c2ccccc2)n2ncc3c2nc(N)n2nc(-c4ccco4)nc32)c1 [Example 110B, (R)-2-(5-amino-2-(furan-2-yl)-7H-pyrazolo[4,3-e][1,2,4]triazolo[1,5-c]pyrimidin-7-yl)-N-((4-methylpyridin-2-yl)methyl)-2-phenylpropanamide]
28 | 7.2 | CC(C(=O)NCc1cc(F)ccn1)(c1ccccc1)n1ncc2c1nc(N)n1nc(-c3ccco3)nc21 (centres unmarked) [Example 118, 2-(5-amino-2-(furan-2-yl)-7H-pyrazolo[4,3-e][1,2,4]triazolo[1,5-c]pyrimidin-7-yl)-N-((4-fluoropyridin-2-yl)methyl)-2-phenylpropanamide]
29 | 3.2 | CC(C(=O)NCc1ncccc1F)(c1ccccc1)n1ncc2c1nc(N)n1nc(-c3ccco3)nc21 (centres unmarked) [Example 119, 2-(5-amino-2-(furan-2-yl)-7H-pyrazolo[4,3-e][1,2,4]triazolo[1,5-c]pyrimidin-7-yl)-N-((3-fluoropyridin-2-yl)methyl)-2-phenylpropanamide]
